According to patent publication US12678416B2, “L-triiodothyronine (T3) for use in limiting microvascular obstruction” (UNI-PHARMA KLEON TSETIS PHARMACEUTICAL LABORATORIES S.A., priority 2019, dated 2026):
Entries after “also recorded” stand apart in the source; their conditions may differ. One block for each compound: values may come before it.

How the values were obtained:
[1] = test system: reperfused STEMI patients; settings: high-dose intracoronary, cohort of 247 reperfused STEMI patients; cited from earlier work
[2] = test system: isolated rat heart; settings: ex vivo, cited from earlier work; for myocardial injury as indicated by apoptosis: at the onset of reperfusion
[3] = test system: STEMI patients after PPCI; experiment: Thy-REPAIR: ST resolution in electrocardiograms on admission and after PPCI; type: in vivo; settings: placebo 34%, p=0.05
Excerpt: (§1) The invention in particular concerns L-triiodothyronine for use in the treatment as set forth in the appending claims. In the broader sense, the present invention concerns L-triiodothyronine for use in the treatment of microvascular obstruction. Treatment of MVO in this context relates to the lessening of microvascular obstruction in comparison to patients which were not supplied with T3. MVO may be determined on the basis of both Cardiac Magnetic Resonance (CMR) imaging, being performed 7-12 days following primary percutaneous coronary intervention (PPCI) and restoration of ST elevation in electrocardiogram (ECG). Infarct size and ejection fraction was measured by CMR. Infarct size was also assessed enzymatically by measuring levels of troponin in blood.
(§2) The dose administered is 0.8 μg/kg intravenously bolus starting immediately after successful opening of the culprit vessel has been established in the hemodynamic lab and followed by an infusion of 0.113 μg/kg/h intravenously for 48 hours.
These unexpected findings concerning MVO were also supported by other measurements. Changes in ST elevation in electrocardiograms before and after PPCI measured as ST restoration (%) are closely correlated with the extent of MVO (FIG. 6).

[4] = test system: STEMI patients; experiment: Thy-REPAIR: left ventricular ejection fraction by echocardiography; type: in vivo; settings: early and late after the index event, T3 vs placebo
Method: FIG. 12: Left ventricular ejection fraction assessed by echocardiography at different time points in STEMI patients treated with placebo and T3
as §2

[5] = test system: STEMI patients after PPCI; experiment: Thy-REPAIR: contrast-enhanced cardiac magnetic resonance (MVO, infarct size, LV function); type: in vivo
Method: (§3) The potential effect of early administration of high dose TH (acute treatment) after an index event has been also investigated in experimental models of ischemia-reperfusion (I/R) using isolated rat heart preparations. […] Thy-REPAIR explores the effects of high-dose T3 treatment intravenously starting immediately after reperfusion and continuing for 48 hours in patients with anterior or anterolateral STEMI undergoing primary PCI. This is a double-blind randomized trial. The primary end point of this study is recovery of myocardial function after 6 months of the index event as this is assessed by Cardiac Magnetic Resonance (CMR) at discharge and at 6 months after acute myocardial infarction. This study also explores the potential effects of T3 treatment on infarct size and cardiac remodeling by assessing changes in LV volumes and geometry.
as §1, §2
Actually, cardiac magnetic resonance with gadolinium represents the gold-standard method for detection of MVO in patients with STEMI. MVO can be quantified in each patient as the percentage of left ventricular (LV) myocardium that is not adequately perfused despite restoration of blood flow in the occluded large coronary artery.
The incidence of MVO was assessed using the value of 0.47% as a cut-off point for patients with large and small extent of MVO as previously described. This analysis was additionally performed and provides a strong evidence about the T3 effect on MVO. In the placebo group (n=9), a large extent of MVO was found in 56% of patients consistent with previous published reports in the literature.

[6] = Thy-REPAIR phase II study: T3 levels in serum during hospitalization; type: in vivo, patients
Method: as §3, §2

[7] = test system: patients with STEMI and low serum FT3 levels; settings: oral T3 for 6 months, cited from earlier work
[8] = test system: STEMI patients; experiment: Thy-REPAIR: troponin levels in blood over time; type: in vivo; settings: T3 vs placebo groups
Excerpt: as §1, §2
Troponin levels in blood over time are mainly a measure of myocardial injury. According to the present invention, troponin levels are similar between T3 and placebo groups indicating a similar infarct size in accordance with CMR data. Thus, it seems that the effect of T3 on MVO is independent from infarct size. (FIG. 8).

[9] = test system: STEMI patients; experiment: Thy-REPAIR: heart rate during hospitalization; type: in vivo; settings: during the first 3 days, high dose T3 vs placebo
Method: as §3, §2
Despite the possible increase in oxygen consumption, no increase in infarct size (IS) is found with T3 in contrast to the current belief (FIG. 3).

[10] = test system: patients after acute myocardial infarction; settings: long-term administration of high doses; cited from earlier work

Compound: Nc1ncnc2c1ncn2[C@@H]1O[C@H](CO)[C@@H](O)[C@H]1O [adenosine]
MVO and MI size [1]: failed to reduce

Compound: N[C@@H](Cc1cc(I)c(Oc2cc(I)c(O)c(I)c2)c(I)c1)C(=O)O [T4, L-thyroxine]
myocardial injury as indicated by apoptosis [2]: no effect

T3 levels in serum relative to normal range ([6]; at discharge (7th day)): return to normal
T3 levels in serum relative to normal range ([6]; for 72 hours): far above normal range
concentration at 24 h ([6]; human, serum, at 24 hours, 0.8 μg/kg iv bolus then 0.113 μg/kg/h iv for 48 hours, placebo 0.79 (0.06), p<0.01): 5.5 ng/mL
concentration at 48 h ([6]; human, serum, at 48 hours, 0.8 μg/kg iv bolus then 0.113 μg/kg/h iv for 48 hours, placebo 0.76 (0.06), p<0.01): 4.5 ng/mL
Compound: N[C@@H](Cc1cc(I)c(Oc2ccc(O)c(I)c2)c(I)c1)C(=O)O [T3, L-triiodothyronine]
mean ST resolution after PPCI [3]: 54%
LV ejection fraction by echocardiography [4]: improvement
extent of mean microvascular obstruction ([5]; CMR at discharge (7-12 days after the event), T3 vs placebo): less
infarct size (IS) by CMR ([5]; T3 vs placebo, at discharge): no increase; also recorded: similar
cardiac function by CMR ([5]; at 6 months, T3 vs placebo): improvement
cardiac function ([5]; at discharge and at 6 months): improved
myocardial function (EF %, LVEDVi and end-systolic volumes by CMR) ([5]; at discharge, T3 vs placebo): improved
recovery of function (ejection fraction at 6 months) versus myocardial injury (infarct size by CMR) ([5]; correlation in T3 group): independent
patients with a large extent of MVO ([5]; cut-off 0.47%, T3 group n=12, placebo (n=9) 56%, p=0.05): 25%
regional cardiac dysfunction ([7]; commenced 72 h after onset of STEMI, max 15 μg/m^2/day, 37 patients): effective in reducing
safety of T3 replacement therapy ([7]; commenced 72 h after onset of STEMI): safe
left ventricular ejection fraction and myocardial infarct size by cardiac MRI [7]: did not show any benefit
troponin levels in blood over time [8]: similar
heart rate [9]: non-significant increase
myocardial injury as indicated by apoptosis [2]: less
post-ischemic recovery of function ([2]; high dose at the onset of reperfusion): enhanced

Compound: N[C@H](Cc1cc(I)c(Oc2cc(I)c(O)c(I)c2)c(I)c1)C(=O)O [D-thyroxine]
mortality [10]: increased
